From US7772252B2, “Heterocyclic substituted carbonyl derivatives and their use as dopamine D3 receptor ligands” (Aventis Pharmaceuticals Inc., priority 2001, dated 2010) come the findings set out here.

The target in this assay is T1, cloned human alpha-1A adrenergic receptors (α1a) (Homo sapiens, UniProt P35348).
T1 construct: expressed in transfected cells; membranes
T1 sequence (P35348 1-466): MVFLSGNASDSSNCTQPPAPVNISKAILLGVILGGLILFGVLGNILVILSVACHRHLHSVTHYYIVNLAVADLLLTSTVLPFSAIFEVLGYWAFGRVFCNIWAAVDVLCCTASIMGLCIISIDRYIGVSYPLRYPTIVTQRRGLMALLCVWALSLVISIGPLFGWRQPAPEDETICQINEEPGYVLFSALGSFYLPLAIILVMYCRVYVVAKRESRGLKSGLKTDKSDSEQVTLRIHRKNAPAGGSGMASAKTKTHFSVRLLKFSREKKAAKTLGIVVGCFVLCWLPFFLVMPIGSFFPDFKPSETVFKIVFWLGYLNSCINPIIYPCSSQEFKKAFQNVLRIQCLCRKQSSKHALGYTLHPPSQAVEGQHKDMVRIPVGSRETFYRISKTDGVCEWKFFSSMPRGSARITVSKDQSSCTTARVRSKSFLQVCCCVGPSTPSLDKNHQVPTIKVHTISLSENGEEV
Description: [3H]Prazosin binding to cloned human alpha-1A adrenergic receptors expressed in CHO cells. The following applies: read-out: halpha1Ki (nM) h = human. From the text:
^3H]Prazosin Binding to Cloned Human Alpha-1A Adrenergic Receptors (α1a) Expressed in Chinese Hamster Ovary Cells (CHO)
• Purpose: This in vitro assay is designed as a screen to identify compounds displaying a affinity for the human α1a adrenoceptor subtype expressed in the membrane fragments of CHO cells. The assay measures the ability of the test compounds to displace [^3H] prazosin from α1a sites. • The identification of multiple vascular α1-addrenoceptors (α1a, α1b, α1d) in vitro has provided impetus to define the role(s) of these subtypes in cardiovascular regulation in vivo (Vargas and Gorman, 1995). […] Prazosin is a potent antagonist of the human α1a-adrenoceptor subtype, which has been cloned and is expressed in the membrane fragments of CHO cells. • hα1a receptor: The cloning of the human α1a cDNA was accomplished first by screening a human prostate cDNA library (Clontech), from which a portion of the coding region was obtained. This DNA fragment was then used to screen a human leukocyte genomic library (Clontech), and the rest of the coding sequence was obtained. Later these two fragments were spliced together. The entire coding sequence was then fully sequenced including matching PCR sequence with original genomic coding sequence, thus ensuring splice sites were joined correctly (Schwinn et al., 1995). Once sequenced, the gene was subcloned into the expression vector pcDNA3 (Invitrogen). Plasmid DNA was then used for transfection into CHO cells and G418 resistant clones were isolated. A clone expressing high levels of the hα1a receptor (as determined by mRNA and receptor binding data) was chosen and pharmacologically characterized. • Culture Media Ingredients for Adherent α1a expressing CHO Culture: • A. HAM's F-12 (Celigro) • B. 10% 0.2 micron filtered Fetal Bovine Serum (FBS)(Celigro) • C. 1% 0.2 micron filtered Penicillin-Streptomycin (Celigro) • D. G418 0.2 micron filtered (Geneticin 400 μg/ml)(Celigro) • Cells are cultured using established methods and procedures in either 150×25 mm culture plates (scale up to 100 plates) or a combination of these plates and 70 roller bottles. One culturing/harvest cycle typically requires 2 weeks and yields between 100-400 mg protein. Plates or bottles are incubated at 37° C.+5% CO2. • Storage: Cells are harvested by mechanical scraping, washed using PBS, collected in 250 ml Corning polypropylene centrifuge tubes, spun down (1500 RPM) and resuspended in dH2O 10% DMSO (final volume per harvest is approximately 50 ml). Protein determination is made using the Biorad DC Assay Kit. Finally, the appropriate volume is aliquoted into a 2 ml Corning Cryovial (10 mg/1-1.5 ml) which is stored at −80° C.
• Assay Requirement: 0.5 cryovials per 96 well plate (assay volume=200 μl/well) • [^3H]-Ligand: [7-methoxy-^3H]-Prazosin: 1.0 nM (NEN, NET-823) • 70-87 Ci/mmol • Materials: Phentolamine mesylate (Research Biochemicals Int. #P-131) • 96 well flat bottom plates (Beckman) • Unifilter GF/B Plate (Packard) • Polyethylenimine (Sigma #P-3134) • TomTec or Packard Filtermate 196 Cell Harvesters • Packard TopCount Scintillation Counter • Buffers: A: 50 mM Tris HCl; 0.1% ascorbate, pH 7.7 (incubation buffer) • B: 50 mM Tris HCl; pH 7.7 (wash buffer) • Procedure: Assay additions are as follows (in the order indicated): • Total Binding=50 μl buffer A+50 μl [^3H]prazosin+100 μl membrane • Nonsp. Bd.=50 μl 10 μM phentolamine+50 μl [^3H]prazosin+100 μl membrane • Test Cpd.=50 μl compound+50 μl [^3H]prazosin+100 μl membrane • Compounds to be evaluated are weighed out to yield a 10 mM stock solution in DMSO in a 24 well polystyrene plate. This is diluted to a 0.5 mM stock in dH2O, Serial dilutions in Buffer A are made from which 50 μl additions to the plate are made in duplicate in order to achieve the final concentrations desired. Typically, one 96 well plate is used to evaluate 11 compounds at 4 concentrations (10^−6-10^−9 M) in duplicate. Total binding and nonspecific binding are determined in quadruplicate. […]
`O=C(CCCN1CCN(c2csc3cc(C(F)(F)F)ccc23)CC1)N1CCC(N2CCCC2)CC1` [compound 826816]: the Ki was found to be 249 nM.

Regarding `O=C(CCCN1CCN(c2csc3cc(F)ccc23)CC1)N1CCC(O)CC1` [compound 826852], the Ki was 6.16 nM.

Turning to `O=C(CCCN1CCN(c2csc3cc(C(F)(F)F)ccc23)CC1)NC1CCCCC1` [compound 826821], the Ki came to 1280 nM.

`CC1CCCC(NC(=O)CCCN2CCN(c3csc4cc(F)ccc34)CC2)C1` (stereo not drawn) [compound 826847]: the Ki turned out to be 0.513 nM.

For `CC1CCCC(NC(=O)CCCN2CCN(c3csc4cc(C(F)(F)F)ccc34)CC2)C1` (racemic) [compound 826807], the Ki is 166000 nM.

Turning to `CCN(C(=O)CCCN1CCN(c2csc3cc(F)ccc23)CC1)C1CCCCC1` [compound 826849], the Ki is 35.2 nM.

On to `CC1CCCN1C(=O)CCCN1CCN(c2csc3cc(C(F)(F)F)ccc23)CC1` (stereo not drawn) [compound 826822], for which the Ki was found to be 32.2 nM.

Regarding `O=C(CCCN1CCN(c2csc3cc(C(F)(F)F)ccc23)CC1)N(CCO)C1CCCCC1` [compound 826810], the Ki is 200 nM.

Turning to `O=C(CCCN1CCN(c2csc3cc(C(F)(F)F)ccc23)CC1)NC1CCCC1` [compound 826820], the Ki stood at 129 nM.

For the compound `CCOC(=O)[C@H]1CC[C@H](NC(=O)CCCN2CCN(c3csc4cc(F)ccc34)CC2)CC1` [compound 826845], the Ki was determined as 5.44 nM.

Regarding `O=C(CCCN1CCN(c2csc3cc(C(F)(F)F)ccc23)CC1)N1CCCC1` [compound 826819], the Ki came to 49 nM.

On to `CCOC(=O)C1CCN(C(=O)CCCN2CCN(c3csc4cc(F)ccc34)CC2)CC1` [compound 826851], for which the Ki came out at 18.9 nM.

`CC1CC(C)CN(C(=O)CCCN2CCN(c3csc4cc(C(F)(F)F)ccc34)CC2)C1` (stereo not drawn) [compound 826818]: the Ki stood at 124 nM.

Consider `O=C(CCCN1CCN(c2csc3cc(C(F)(F)F)ccc23)CC1)N1CCC(O)CC1` [compound 826812], for which the Ki turned out to be 658 nM.

For `O=C(CCCN1CCN(c2csc3cc(F)ccc23)CC1)NC1CCCCC1` [compound 826861], the Ki was found to be 9.55 nM.

For the compound `CCOC(=O)C1CCN(C(=O)CCCN2CCN(c3csc4cc(C(F)(F)F)ccc34)CC2)CC1` [compound 826811], the Ki came to 223 nM.

On to `CC1CCCCN1C(=O)CCCN1CCN(c2csc3cc(C(F)(F)F)ccc23)CC1` (stereo not drawn) [compound 826813], for which the Ki was found to be 57 nM.

As for `C[C@H]1CC[C@H](NC(=O)CCCN2CCN(c3csc4cc(F)ccc34)CC2)CC1` [compound 826844], the Ki turned out to be 23.4 nM.

For `O=C(CCCN1CCN(c2csc3cc(F)ccc23)CC1)NC1CCCC1` (racemic) [compound 826860], the Ki was 0.516 nM.

Consider `CC1CCN(C(=O)CCCN2CCN(c3csc4cc(F)ccc34)CC2)CC1` [compound 826854], for which the Ki is 0.0713 nM.

For the compound `CC[C@H]1CC[C@H](NC(=O)CCCN2CCN(c3csc4cc(F)ccc34)CC2)CC1` [compound 826846], the Ki is 93.9 nM.

As to `CC1CC(C)CN(C(=O)CCCN2CCN(c3csc4cc(F)ccc34)CC2)C1` (stereo not drawn) [compound 826858], the Ki was found to be 9.42 nM.

As to `CC1CCN(C(=O)CCCN2CCN(c3csc4cc(C(F)(F)F)ccc34)CC2)CC1` [compound 826814], the Ki came out at 89.3 nM.

As for `O=C(CCCN1CCN(c2csc3cc(F)ccc23)CC1)N(CCO)C1CCCCC1` [compound 826850], the Ki was 28.4 nM.

As to `CC1CCCCN1C(=O)CCCN1CCN(c2csc3cc(F)ccc23)CC1` (stereo not drawn) [compound 826853], the Ki turned out to be 0.258 nM.

With `O=C(CCCN1CCN(c2csc3cc(F)ccc23)CC1)N1CCC(N2CCCC2)CC1` [compound 826856], the Ki came out at 15.3 nM.

Regarding `CN(C)C1CCN(C(=O)CCCN2CCN(c3csc4cc(C(F)(F)F)ccc34)CC2)C1` (stereo not drawn) [compound 826823], the Ki came to 148 nM.

Consider `O=C(CCCN1CCN(c2csc3cc(F)ccc23)CC1)N1CCCC1` [compound 826859], for which the Ki turned out to be 4 nM.

For the compound `CN(C(=O)CCCN1CCN(c2csc3cc(C(F)(F)F)ccc23)CC1)C1CCCCC1` [compound 826808], the Ki worked out at 126 nM.

In the case of `CN(C(=O)CCCN1CCN(c2csc3cc(F)ccc23)CC1)C1CCCCC1` [compound 826848], the Ki was found to be 12.3 nM.

With `CC1CCCN(C(=O)CCCN2CCN(c3csc4cc(C(F)(F)F)ccc34)CC2)C1` (stereo not drawn) [compound 826815], the Ki is 80.5 nM.

Turning to `CC1CCCN1C(=O)CCCN1CCN(c2csc3cc(F)ccc23)CC1` (stereo not drawn) [compound 826862], the Ki worked out at 0.637 nM.

In the case of `CC1CCCN(C(=O)CCCN2CCN(c3csc4cc(F)ccc34)CC2)C1` (stereo not drawn) [compound 826855], the Ki is 0.889 nM.
